This is an account of results in patent publication US20240216354A1, “IMMUNOMODULATORY IMIDE DRUGS AS ZETA-CHAIN-ASSOCIATED PROTEIN KINASE 70 (ZAP70) AGONISTS AND USES THEREOF” (Dana-Farber Cancer Institute, Inc., priority 2019, published 2024).

The test deals with NK-92 cells. Kind of test: NK-92 cell growth by MTT assay. As to conditions: Pom 0.03-3 μM, 72 h. The class given is cell-based. The protocol:
(A) NK-92 cells were cultured with Pom (0.5 and 1 μM) for 24 h. Whole cell lysates were subjected to immunoblotting using indicated Abs. (B) NK-92 cells were cultured with Pom (0.5 and 1 μM) for 48 h. The cells were subsequently incubated with calcein-AM-stained U266 cells for 4 h at the indicated effector/target (E/T) ratios. Percent specific lysis was calculated as described previously. (C) NK-92 cells were cultured with Pom (0.03-3 μM) for 72 h. Cell growth was assessed by MTT assay. (D) NK-92 cells were transfected with scrambled (Sc) or Zap-70 siRNA (Zap70si). After 72 h incubation, cell viability was measured by trypan-blue dye exclusion. For B, C, and D, data are representative of at least two independent experiments, and values are expressed in mean±SD.
(In general: Formazan colour is commonly taken as a measure of viable cells.)

As to `Nc1cccc2c1C(=O)N(C1CCC(=O)NC1=O)C2=O` (stereo not shown) [pomalidomide], the “cell growth (MTT)” value is on record as “neither Pom nor Zap-70 KD altered growth in NK-92 cells”.
